This passage reports IC50 results from ChEMBL document CHEMBL1124714, “Synthesis and in vitro activity of stereoisomers of a novel thromboxane receptor antagonist, (+-)-(5Z)-7-[3-endo-[(phenylsulfonyl)amino]bicyclo [2.2.1]hept-2-exo-yl]heptenoic acid” (J Med Chem, 1990).

What all share (assay type): functional, organism-based
The species named for one test is Homo sapiens. The experiment in a line: Inhibitory activity against aggregation of human platelet-rich plasma(induced by 4 uM of U-46619).
The species entered for test [1] is Rattus norvegicus. The experiment in a line: Inhibitory activity against rat thoracic aorta(induced by 30 nM of U-46619).
Test [2] is filed under the species Rattus norvegicus. Put plainly: Inhibitory activity against aggregation of rat washed platelets (induced by 4 ug/mL of collagen).

Each structure is given as a SMILES string.

`O=C(O)CCC/C=C\C[C@@H]1[C@H](CNNC(=O)Nc2ccccc2)[C@H]2CC[C@H]1O2` gave a 50% inhibitory concentration (IC50) in the test filed under Homo sapiens of 60 nM.
`O=C(O)CCC/C=C\C[C@H]1C2CC[C@@H](C2)[C@@H]1NS(=O)(=O)c1ccccc1`: the figures for the IC50 in the test listed under Rattus norvegicus [1], in the test filed under Rattus norvegicus [2] and in the test filed under Homo sapiens were 1.4 nM, 2.9 nM and 450 nM, respectively.
The like results for `O=C(O)CCC/C=C\C[C@@H]1C2CC[C@@H](C2)[C@H]1NS(=O)(=O)c1ccccc1` were, in that order, 16.9 nM, 2.9 nM and 3300 nM.
In the case of `O=C(O)CCC/C=C\C[C@@H]1C2CC[C@@H](C2)[C@@H]1NS(=O)(=O)c1ccccc1`, the values for the half-maximal inhibitory concentration (IC50) in the test filed under Rattus norvegicus [1], in the test listed under Rattus norvegicus [2] and in the test listed under Homo sapiens were 37.2 nM, 4.1 nM and 2500 nM, respectively.
As for `O=C(O)COc1ccc(CCNS(=O)(=O)c2ccccc2)cc1` [SULOTROBAN], the values for the IC50 in the test filed under Rattus norvegicus [1], in the test listed under Rattus norvegicus [2] and in the test filed under Homo sapiens were 1800 nM, 260 nM and 7200 nM, respectively.

For orientation: IC50 means the concentration needed to halve the response being measured. A high value points to weaker potency.
